Consider 1 compound from US20240409934A1, “FOXO1-TARGETED THERAPY FOR THE TREATMENT OF CANCER” (BOARD OF REGENTS, THE UNIVERSITY OF TEXAS SYSTEM, priority 2021, published 2024).

The subject of one experiment is A172. Nature of the experiment: Colony formation assay (crystal violet). It counts as cell-based. Particulars: treated five days. As to the method: (§1) Cell culture and drug treatments. Cell lines were obtained from ATCC (American Type Culture Collection, Manassas, VA) and grown under standard conditions (5% CO2, 10% FBS (fetal bovine serum), with 5% antifungal/antibacterial). Cell lines were tested for Mycoplasma using the MycoAlert Mycoplasma Detection Kit (Lonza, Basel Switzerland, cat: LT07-218); all experiments were done with mycoplasma negative cells. U87MG cells were propagated in MEM (Minimal Essential Medium). BT549 and DBTRG cells were propagated in RPMI (Roswell Park Memorial Institute 1640 Medium). LN18, U118MG, A172 and LN229 cells were propagated in DMEM (Dulbecco's Modified Eagle Medium). Neurosphere/cancer stem cell cultures for U87MG and BT549 cell lines were plated with 40,000 cells per mL in 3D Tumorsphere Medium XF (Sigma cat: C-28070, Burlington, MA). BT549 cancer stem cell cultures were supplemented with 1XB27 XenoFree CTS (Gibco/Thermo Fisher Waltham, MA, USA). AS1842856 was purchased from Calbiochem (Danvers, MA) and utilized at 200 nM, 500 nM and 1 μM final concentrations as indicated. AS1708727 was purchased from MedChem Express (Monmouth Junction, NJ) and was used at 0.5 μM, 1.0 µM and 2.0 μM concentrations. 5-aza-2′-deoxycytidine (5-AZA) was purchased from Millipore/Sigma (Burlington, MA) and utilized at a final concentration of 3 μM. Cells were plated at a density of 2,700 cells per mL and were treated five days with indicated drug. Treatments were investigated in triplicate (in numerous independent experiments) and stained with crystal violet. Plates were aspirated of media then each well was washed with 1.0 mL of 1x phosphate buffered saline (PBS) once before being stained with 1.0 mL of crystal violet stain (0.5% crystal violet in buffered formalin) and incubated for 15 minutes. The stain was aspirated, and wells were washed 3 times with 0.5 mL of 1x PBS. After collections were completed, crystal violet-stained plates were solubilized using 0.5 mL on each well of 10% acetic acid and placed on shaker for 1 hour. Solubilized samples were transferred to 96 well plates and quantified on a spectrophotometer at 590 nm. Quantified plates were analyzed with a Tukey test. Error bars were added using the standard deviation. Cells were plated at 2,700 cells per mL and were treated five days with the indicated drug. Treatments were investigated in triplicate (in numerous independent experiments) and stained with crystal violet. Plates were aspirated of media, then each well was washed with 1.0 mL of 1× phosphate-buffered saline (PBS) once before being stained with 1.0 mL of crystal violet stain (0.5% crystal violet in buffered formalin) and incubated for 15 minutes. The stain was aspirated, and cells were washed three times with 0.5 mL of 1×PBS. After collections were completed, crystal violet-stained plates were solubilized using 0.5 mL on each well of 10% acetic acid and placed on a shaker for 1 hour. Solubilized samples were transferred to 96 well plates and quantified on a spectrophotometer at 590 nm using iMark Microplate Absorbance Reader (Bio-Rad, Hercules, CA). Quantified plates were analyzed with a Tukey Test. Error bars were added using the standard deviation.

The next experiment relates to BT549. Nature of the experiment: Colony formation assay (crystal violet). In kind it is cell-based. Particulars: treated five days. As to the method:
as §1

The next experiment has as its system DBTRG. The experiment can be described thus: Colony formation assay (crystal violet). It counts as cell-based. Particulars: treated five days. As to the method: as §1
The test system of a further experiment is LN18. Nature of the experiment: Colony formation assay (crystal violet). It counts as cell-based. Particulars: treated five days. The protocol:
as §1

The next experiment has as its system LN229. The experiment can be described thus: Colony formation assay (crystal violet). Particulars: treated five days. It counts as cell-based. As to the method: as §1
The next experiment relates to SW480. The experiment can be described thus: Colony formation assay (crystal violet). It counts as cell-based. Particulars: treated five days. As to the method: [The procedure below names another cell line; the source lists this cell line under the same test.] as §1
A further experiment relates to U87MG cells. The experiment can be described thus: Colony formation assay (crystal violet). It counts as cell-based. As to the method:
as §1

Another experiment deals with BT549 cells. Nature of the experiment: Gene expression by qRT-PCR (TUBB reference). It counts as cell-based. As to the method:
(§2) Cell culture and drug treatments. Cell lines were obtained from ATCC (American Type Culture Collection, Manassas, VA) and grown under standard conditions (5% CO2, 10% FBS (fetal bovine serum), with 5% antifungal/antibacterial). Cell lines were tested for Mycoplasma using the MycoAlert Mycoplasma Detection Kit (Lonza, Basel Switzerland, cat: LT07-218); all experiments were done with mycoplasma negative cells. U87MG cells were propagated in MEM (Minimal Essential Medium). BT549 and DBTRG cells were propagated in RPMI (Roswell Park Memorial Institute 1640 Medium). LN18, U118MG, A172 and LN229 cells were propagated in DMEM (Dulbecco's Modified Eagle Medium). Neurosphere/cancer stem cell cultures for U87MG and BT549 cell lines were plated with 40,000 cells per mL in 3D Tumorsphere Medium XF (Sigma cat: C-28070, Burlington, MA). BT549 cancer stem cell cultures were supplemented with 1XB27 XenoFree CTS (Gibco/Thermo Fisher Waltham, MA, USA). AS1842856 was purchased from Calbiochem (Danvers, MA) and utilized at 200 nM, 500 nM and 1 μM final concentrations as indicated. AS1708727 was purchased from MedChem Express (Monmouth Junction, NJ) and was used at 0.5 μM, 1.0 µM and 2.0 μM concentrations. 5-aza-2'-deoxycytidine (5-AZA) was purchased from Millipore/Sigma (Burlington, MA) and utilized at a final concentration of 3 μM. Total RNA was prepared using the Qiagen RNeasy kit (Hilden, Germany), which was then used to generate cDNA using Superscript Reverse Transcriptase II (Invitrogen, Carlsbad, CA). Samples (cDNAs) were analyzed using (Power SYBR Green Master Mix, Applied Biosystems, Foster City, CA) and the ABI Step-One Real-time system (Carlsbad, CA). Expression levels were normalized to Beta-Tubulin, TUBB in gene expression experiments and calculated using 2-4ACT method (Livak et al., 2001). Primer sequences are detailed in Table 1. MDA-MB-468 cells were grown to log phase in DMEM with 10% FBS without antibiotics. BT549 cells were grown to log phase in DMEM with 10% FBS without antibiotics. Cells were transfected with FOXO1 esiRNA (EHU156591 Sigma, St. Louis, MO) or EGFP control esiRNA (EHUEGFP) using Lipofectamine 3000 (utilized only […] reagent, Invitrogen, Carlsbad, CA).
(In qPCR the cycle at which signal appears reflects the starting amount.)

For the next experiment, the system named is MDA-MB-468 cells. The experiment can be described thus: Gene expression by qRT-PCR (TUBB reference). It counts as cell-based. As to the method: as §2
A further experiment has as its target FOXO1 (Homo sapiens, UniProt Q12778). Particulars: cited from earlier work.

Chain of FOXO1 (Q12778 whole entry, species assumed): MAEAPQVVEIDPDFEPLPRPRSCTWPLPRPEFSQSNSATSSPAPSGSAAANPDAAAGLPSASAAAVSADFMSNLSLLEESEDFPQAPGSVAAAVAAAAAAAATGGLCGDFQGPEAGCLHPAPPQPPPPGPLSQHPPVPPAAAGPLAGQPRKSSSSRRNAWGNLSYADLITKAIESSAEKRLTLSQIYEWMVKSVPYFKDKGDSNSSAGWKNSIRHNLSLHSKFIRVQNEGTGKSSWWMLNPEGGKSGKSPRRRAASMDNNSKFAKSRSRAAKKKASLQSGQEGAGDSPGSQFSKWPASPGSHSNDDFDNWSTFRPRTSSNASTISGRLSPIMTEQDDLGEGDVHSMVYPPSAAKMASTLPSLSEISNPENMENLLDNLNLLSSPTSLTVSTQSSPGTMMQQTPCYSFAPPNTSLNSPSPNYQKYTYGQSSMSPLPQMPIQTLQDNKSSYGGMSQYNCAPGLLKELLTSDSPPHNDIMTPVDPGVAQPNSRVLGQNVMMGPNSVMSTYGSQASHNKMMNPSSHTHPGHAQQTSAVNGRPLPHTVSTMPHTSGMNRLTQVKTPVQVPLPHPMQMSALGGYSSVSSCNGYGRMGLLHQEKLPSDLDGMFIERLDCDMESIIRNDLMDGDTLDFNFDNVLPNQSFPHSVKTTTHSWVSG

As to `CCn1cc(C(=O)O)c(=O)c2c(N)c(F)c(NC3CCCCC3)cc21` [AS1842856, 5-Amino-7-(cyclohexylamino)-1-ethyl-6-fluoro-4-oxo-1,4-dihydroquinoline-3-carboxylic acid], the colony formation entry in the experiment on A172 is “fewer cells with 200 nM drug treatment with further reductions using 500 nM and 1 μM drug”; in the experiment with BT549, “fewer cells with 200 nM drug treatment with further reductions using 500 nM and 1 μM drug”; in the experiment on DBTRG, “fewer cells with 200 nM drug treatment with further reductions using 500 nM and 1 μM drug”; in the experiment with LN18, “fewer cells with 200 nM drug treatment with further reductions using 500 nM and 1 μM drug”; in the experiment on LN229, “fewer cells with 200 nM drug treatment with further reductions using 500 nM and 1 μM drug”; with SW480, “Significantly reduced colony formation”. Also, the colony number result with U87MG cells is reported as “colony number was not significantly impacted”. Further, the “FAS and BIM gene induction, comparison of the two inhibitors” value with BT549 cells is “robustly caused FAS and BIM”; in the experiment on MDA-MB-468 cells, “robustly caused FAS and BIM”. Also, the FOXO1 gene expression result in the experiment with BT549 cells (1 μM for 48 hours) is listed as “increased FOXO1 gene expression”. Also, the “apoptotic genes FAS and/or BIM expression” value with BT549 cells (1 μM for 48 hours) and in the experiment on MDA-MB-468 cells (1 μM for 48 hours) was “induced apoptotic genes FAS and/or BIM” in each case. Moreover, the FOXO1 expression result in the experiment on MDA-MB-468 cells (48 hours of treatment) is “decreased FOXO1 expression”. For the same compound, the “FOXO1 DNA binding and transactivation” value at FOXO1 was “reduces DNA binding and transactivation”.
